Holding throughout (type): cell-based
Data set [1] relates to HBV. Kind of data set: Anti-viral assay in HepG2.2.15 cells: HBV DNA in culture medium by qPCR. As to the method: (§1) HepG2.2.15 (the HepG2.2.15 cell line can be produced by transfection of the HepG2 cell line as described in Sells, Chen, and Acs 1987 (Proc. Natl. Acad. Sci. USA 84: 1005-1009), and the HepG2 cell line is available from ATCC® under number HB-8065™).
(§2) HepG2.2.15 cells were plated into 96-well plate in 2% FBS culture medium at the density of 40,000 cells/well and 5,000 cells/well for HBV inhibitory activity and cytotoxicity determination, respectively. After incubation at 37° C., 5% CO2 overnight, cells were treated with medium containing compounds for 6 days with medium and compounds refreshed after 3 days of treatment. Each compound was tested in a 1:3 serial dilutions at 8 different concentrations in triplicate. The highest concentration of the compounds was 10 uM or 1 uM for anti-HBV activity assay and 100 uM for cytotoxicity determination. Cell viability was determined by CCK-8 assay. After 6 days of compounds treatment, 20 μl CCK-8 reagents were added to each well of cytotoxicity assay plates. Cell plates were incubated at 37° C., 5% CO2 for 2.5 h. The absorbance at 450 nm wavelength and the absorbance at 630 nm wavelength as reference was measured.
The change of HBV DNA level induced by the compounds was assessed by quantitative real-time polymerase chain reaction (qPCR). Briefly, the HBV DNA in the culture medium was extracted using QlAamp 96 DNA Blood Kit according to the manual and then quantified by real-time PCR assay using the primers and probe in the table 1 below.
(§3) EC50 and CC50 values are calculated by the GRAPHPAD PRISM software.

Data set [2] concerns HepG2.2.15 cells. The data set can be described thus: Cytotoxicity determination in HepG2.2.15 cells (CCK-8 cell viability). Particulars: 6 days treatment, CCK-8, highest concentration 100 uM. As to the method:
as §1, §2, §3

Assay in data set [3]: as above
Particulars: human, 6 days treatment, CCK-8, highest concentration 100 uM. As for the experimental part: as §1, §2, §3

The mark [4] stands for this setting: HepG2.2.15 cells, 6 days treatment, HBV DNA in culture medium by real-time PCR, read-out: EC50.
Where [5] appears, read: Hepatitis B virus, HepG2.2.15, 144 h, HepG2.2.15 cells, 6 days treatment, HBV DNA in culture medium by real-time PCR, read-out: EC50.
Where [6] appears, read: Hepatitis B virus, HepG2.2.15, 144 h.

As a reminder, the EC50 is the concentration that produces a half-maximal response. Usually CC50 stands for the concentration giving 50% cytotoxicity.

The structures appear in SMILES notation. Read-outs that look alike come from different tables or passages of the source.

In the case of `COC(=O)C1=C(CN2CCO[C@H]3CN(CC(C)(C)C(=O)O)C(=O)[C@H]32)NC(c2nccs2)=N[C@H]1c1cccc(F)c1Cl` (single isomer, unassigned) [Compound I-24A, 3-((4aS*,7aS*)-4-4(R*)-6-(2-chloro-3-fluorophenyl)-5-(methoxycarbonyl)-2-(thiazol-2-yl)-3,6-dihydropyrimidin-4-yl)methyl)-5-oxohexahydropyrrolo[3,4-b][1,4]oxazin-6(2H)-yl)-2,2-dimethylpropanoic acid], the EC50 in data set [1] (setting [4]) turned out to be 14 nM. In addition, the CC50 in data set [2] was over 100000 nM.
The corresponding values for `CCOC(=O)C1=C(CN2CCO[C@H]3CN(CC(C)(C)C(=O)O)C[C@H]32)NC(c2nccs2)=N[C@H]1c1ccc(F)cc1Cl` (relative stereo) [Compound I-1A, 3-((4aR*,7aS*)-4-4(R*)-6-(2-chloro-4-fluorophenyl)-5-(ethoxycarbonyl)-2-(thiazol-2-yl)-3,6-dihydropyrimidin-4-yl)methyl)hexahydropyrrolo[3,4-b][1,4]oxazin-6(2H)-yl)-2,2-dimethylpropanoic acid] are 16 nM and 59800 nM.
Consider `CCOC(=O)C1=C(CN2CCO[C@H]3CN(CC(C)(C)C(=O)O)C[C@H]32)NC(c2nccs2)=N[C@H]1c1cccc(F)c1Cl` (single isomer, unassigned) [Compound I-13A, 3-((4aR*,7aS*)-4-0(R*)-6-(2-Chloro-3-fluorophenyl)-5-(ethoxycarbonyl)-2-(thiazol-2-yl)-3,6-dihydropyrimidin-4-yl)methyl)hexahydropyrrolo[3,4-b][1,4]oxazin-6(2H)-yl)-2,2-dimethylpropanoic acid], for which the EC50 in data set [1] (setting [5]) worked out at 13 nM. This compound also registered a 50% cytotoxic concentration (CC50) at 6 days in data set [3] of 67100 nM.
In the same order, the values of `CCOC(=O)C1=C(CN2CCO[C@H]3CN(CC(C)(C)C(=O)O)C(=O)[C@H]32)NC(c2nccs2)=N[C@H]1c1cccc(F)c1C` (single isomer, unassigned) [Compound I-3B, (S)-3-((4aS*,7aS*)-4-((5-(Ethoxycarbonyl)-6-(3-fluoro-2-methylphenyl)-2-(thiazol-2-yl)-3,6-dihydropyrimidin-4-yl)methyl)-5-oxohexahydropyrrolo[3,4-b][1,4]oxazin-6(2H)-yl)-2,2-dimethylpropanoic acid] are 5.2 nM and 60200 nM.
The corresponding values for `COC(=O)C1=C(CN2CCO[C@@H]3CN(C(=O)OC(C)(C)C)C[C@H]32)NC(c2ncc(F)cc2F)=N[C@H]1c1ccc(F)cc1Cl` (single isomer, unassigned) [Reference 1A, (4aR*,7aR*)-tert-butyl 4-(((R*)-6-(2-chloro-4-fluorophenyl)-2-(3,5-difluoropyridin-2-yl)-5-(methoxycarbonyl)-3,6-dihydropyrimidin-4-yl)methyl)hexahydropyrrolo[3,4-b][1,4]oxazine-6(2H)-carboxylate, reference compound] are over 1000 nM and 14000 nM.
The corresponding values for `COC(=O)C1=C(CN2CCO[C@H]3CN(CC(C)(C)C(=O)O)C(=O)[C@H]32)NC(c2nccs2)=N[C@H]1c1cccc(F)c1Cl` (single isomer, unassigned) [Compound I-21A, 3-((4aS*,7aS*)-4-4(R*)-6-(2-chloro-3-fluorophenyl)-5-(methoxycarbonyl)-2-(thiazol-2-yl)-3,6-dihydropyrimidin-4-yl)methyl)-5-oxohexahydropyrrolo[3,4-b][1,4]oxazin-6(2H)-yl)-2,2-dimethylpropanoic acid] are 8 nM and over 100000 nM.
`CCOC(=O)C1=C(CN2CCO[C@H]3CN(CC(C)(C)C(=O)O)C(=O)[C@H]32)NC(c2nccs2)=N[C@H]1c1ccc(F)c(F)c1Cl` (single isomer, unassigned) [Compound I-23A, 3-((4aS*,7aS*)-4-4(R*)-6-(2-chloro-3,4-difluorophenyl)-5-(ethoxycarbonyl)-2-(thiazol-2-yl)-3,6-dihydropyrimidin-4-yl)methyl)-5-oxohexahydropyrrolo[3,4-b][1,4]oxazin-6(2H)-yl)-2,2-dimethylpropanoic acid]: the EC50 in data set [1] (setting [5]) amounted to 0.5 nM. It took 45000 nM to reach half-maximal cytotoxicity in data set [3] (CC50 at 6 days).
In the case of `CCOC(=O)C1=C(CN2CCO[C@H]3CN(C(=O)C(C)(C)C(=O)O)C[C@H]32)NC(c2nccs2)=N[C@H]1c1cccc(F)c1C` (relative stereo) [Compound I-12A, 3-((4aR*,7aS*)-4-4(S)-5-(ethoxycarbonyl)-6-(3-fluoro-2-methylphenyl)-2-(thiazol-2-yl)-3,6-dihydropyrimidin-4-yl)methyl)hexahydropyrrolo[3,4-b][1,4]oxazin-6(2H)-yl)-2,2-dimethyl-3-oxopropanoic acid], in data set [1] (setting [6]), the EC50 came to 310 nM. The same compound returned a cytotoxic concentration (CC50) at 6 days in data set [3] of over 100000 nM.
The corresponding values for `CCOC(=O)C1=C(CN2CCO[C@@H]3CN(c4ncc(C(=O)O)s4)C[C@@H]32)NC(c2nccs2)=N[C@H]1c1cccc(F)c1C` (racemic) [Compound I-8F, 2-((cis)-4-(((S)-5-(Ethoxycarbonyl)-6-(3-fluoro-2-methylphenyl)-2-(thiazol-2-yl)-3,6-dihydropyrimidin-4-yl)methyl)hexahydropyrrolo[3,4-b][1,4]oxazin-6(2H)-yl)thiazole-5-carboxylic acid] are 45 nM and 37600 nM.
`CCOC(=O)C1=C(CN2CCO[C@H]3CN(CC(C)(C)C(=O)O)C[C@H]32)NC(c2nccs2)=N[C@H]1c1cccc(F)c1C` (relative stereo) [Compound I-6A, 3-((4aR*,7aS*)-4-4(S)-5-(Ethoxycarbonyl)-6-(3-fluoro-2-methylphenyl)-2-(thiazol-2-yl)-3,6-dihydropyrimidin-4-yl)methyphexahydropyrrolo[3,4-b][1,4]oxazin-6(2H)-yl)-2,2-dimethylpropanoic acid]: in data set [1] (setting [5]), the EC50 stood at 18 nM. The compound further showed a CC50 at 6 days in data set [3] of 82400 nM.
In the same order, the values of `CCOC(=O)C1=C(CN2CCO[C@@H]3CN(CC(C)(C)C(=O)O)CC[C@@H]32)NC(c2nccs2)=N[C@H]1c1cccc(F)c1C` (single isomer, unassigned) [Compound I-11A, (S)-3-((4aR*,8aS*)-1-((5-(Ethoxycarbonyl)-6-(3-fluoro-2-methylphenyl)-2-(thiazol-2-yl)-3,6-dihydropyrimidin-4-yl)methyl)hexahydro-1H-pyrido[3,4-b][1,4]oxazin-6(7H)-yl)-2,2-dimethylpropanoic acid] are 48 nM and 97900 nM.
`CCOC(=O)C1=C(CN2CCO[C@@H]3CN(C4CCC(C(=O)O)C4)C[C@@H]32)NC(c2nccs2)=N[C@H]1c1cccc(F)c1C` (some centres unmarked) [Compound I-5] displayed an EC50 in data set [1] (setting [6]) of 86 nM. In data set [3], this compound had a CC50 at 6 days of 40600 nM.
In the case of `COC(=O)C1=C(CN2CCO[C@H]3CN(C(=O)OC(C)(C)C)C[C@H]32)NC(c2ncc(F)cc2F)=N[C@@H]1c1ccc(F)cc1Cl` (single isomer, unassigned) [Reference 1F, tert-butyl (4aR*,7aS*)-4-4(S*)-6-(2-chloro-4-fluorophenyl)-2-(3,5-difluoropyridin-2-yl)-5-(methoxycarbonyl)-3,6-dihydropyrimidin-4-yl)methyphexahydropyrrolo[3,4-b][1,4]oxazine-6(2H)-carboxylate, reference compound], the EC50 in data set [1] (setting [5]) came out at 87 nM. The compound further showed a CC50 at 6 days in data set [3] of 5800 nM.
Turning to `COC(=O)C1=C(CN2CCO[C@H]3CN(CC(C)(C)C(=O)O)C(=O)[C@H]32)NC(c2nccs2)=N[C@H]1c1ccc(F)c(F)c1C` (single isomer, unassigned) [Compound I-17B, 3-((4aS*,7aS*)-4-(((S*)-6-(3,4-difluoro-2-methylphenyl)-5-(methoxycarbonyl)-2-(thiazol-2-yl)-3,6-dihydropyrimidin-4-yl)methyl)-5-oxohexahydropyrrolo[3,4-b][1,4]oxazin-6(2H)-yl)-2,2-dimethylpropanoic acid], the EC50 in data set [1] (setting [5]) was determined as 2.6 nM. In data set [3], this compound returned a CC50 at 6 days of 41700 nM.
Regarding `CCOC(=O)C1=C(CN2CCO[C@@H]3CN(C(C)=O)C[C@@H]32)NC(c2nccs2)=N[C@H]1c1cccc(F)c1C` (racemic) [Compound I-4E, (S)-ethyl 6-(((cis)-6-acetylhexahydropyrrolo[3,4-b][1,4]oxazin-4(4aH)-yl)methyl)-4-(3-fluoro-2-methylphenyl)-2-(thiazol-2-yl)-1,4-dihydropyrimidine-5-carboxylate], in data set [1] (setting [6]), the EC50 amounted to 7.1 nM. Moreover, in data set [3], it took 48300 nM to reach half-maximal cytotoxicity (CC50 at 6 days).
The corresponding values for `CCOC(=O)C1=C(CN2CCO[C@H]3CN(C(=O)CC(C)(C)C(=O)O)C[C@H]32)NC(c2nccs2)=N[C@H]1c1cccc(F)c1C` (relative stereo) [Compound I-2A, 4-((4aR*,7aS*)-4-4(S)-5-(ethoxycarbonyl)-6-(3-fluoro-2-methylphenyl)-2-(thiazol-2-yl)-3,6-dihydropyrimidin-4-yl)methyl)hexahydropyrrolo[3,4-b][1,4]oxazin-6(2H)-yl)-2,2-dimethyl-4-oxobutanoic acid] are 33 nM and 74000 nM.

The record behind these values is patent publication US20230002408A1, “HETEROARYLDIHYDROPYRIMIDINE DERIVATIVES AND METHODS OF TREATING HEPATITIS B INFECTIONS” (JANSSEN PHARMACEUTICA NV, priority 2019, published 2023).
